In ChEMBL document CHEMBL5143730, “Structure-Based Design, Optimization, and Development of [18F]LU13: A Novel Radioligand for Cannabinoid Receptor Type 2 Imaging in the Brain with PET” (J Med Chem, 2022):

Legend:
Cannabinoid receptor 2 [1] = target: T1, Cannabinoid receptor 2 (Homo sapiens, UniProt P34972); experiment: Displacement of [3H]-WIN55212-2 from human CB2 receptor transfected in CHO cells membrane incubated for 90 mins; assay type: cell membranes
Cannabinoid receptor 1 = Cannabinoid receptor 1 (Homo sapiens, UniProt P21554); experiment: Displacement of [3H]-SR141716A from recombinant human CB1 receptor expressed in CHO cells membrane incubated for 90 mins; assay type: cell membranes
[2] = Drug uptake in iv dosed Wistar rat brain striatum overexpressing human CB2 receptor (D80N) assessed as TAC peak standardized uptake of compound by PET imaging analysis; assay type: ADME, organism-based; conditions: in vivo
[3] = Drug uptake in iv dosed Wistar rat brain cerebellum overexpressing human CB2 receptor (D80N) assessed as TAC peak standardized uptake of compound by PET imaging analysis; assay type: ADME, organism-based; conditions: in vivo
[4] = Drug uptake in iv dosed Wistar rat brain contralateral region overexpressing human CB2 receptor (D80N) assessed as time to peak radioactivity measured after 26 mins of post injection by PET imaging analysis; assay type: ADME, organism-based; conditions: in vivo
[5] = Drug uptake in iv dosed Wistar rat brain striatum overexpressing human CB2 receptor (D80N) assessed as time to peak radioactivity measured after 26 mins of post injection by PET imaging analysis; assay type: ADME, organism-based; conditions: in vivo
[6] = Metabolic stability in CD-1 mouse spleen assessed as parent compound remaining measured after 30 mins by radio-HPLC analysis; assay type: ADME, tissue-based; conditions: read-out: Stability
[7] = Drug uptake in iv dosed Wistar rat brain cerebellum overexpressing human CB2 receptor (D80N) assessed as time to peak radioactivity measured after 26 mins of post infection by PET imaging analysis; assay type: ADME, organism-based; conditions: in vivo
[8] = Metabolic stability in CD-1 mouse plasma assessed as parent compound remaining measured after 30 mins by radio-HPLC analysis; assay type: ADME, cell-free; conditions: read-out: Stability
[9] = MRT in iv dosed Wistar rat brain contralateral region overexpressing human CB2 receptor (D80N) by PET imaging analysis; assay type: ADME, organism-based; conditions: in vivo
[10] = Metabolic stability in CD-1 mouse brain assessed as parent compound remaining measured after 30 mins by radio-HPLC analysis; assay type: ADME, tissue-based; conditions: read-out: Stability
[11] = Drug uptake in iv dosed Wistar rat brain contralateral region overexpressing human CB2 receptor (D80N) assessed as TAC peak standardized uptake of compound by PET imaging analysis; assay type: ADME, organism-based; conditions: in vivo
[12] = MRT in iv dosed Wistar rat brain cerebellum overexpressing human CB2 receptor (D80N) by PET imaging analysis; assay type: ADME, organism-based; conditions: in vivo
Cannabinoid receptor 2 [13] = target: T1, Cannabinoid receptor 2; experiment: Displacement of [3H]-WIN55212-2 from human CB2 receptor transfected in CHO-K1 cell membrane incubated for 90 mins by Liquid scintillation counter analysis; assay type: cell membranes
Cannabinoid receptor 2 [14] = target: T1, Cannabinoid receptor 2; experiment: Inhibition of human CB2 receptor assessed as inhibition constant; assay type: functional
Homo sapiens [15] = species: Homo sapiens; experiment: Selectivity ratio of Ki for displacement of [3H]-SR141716A from human CB1 receptor to Ki for displacement of [3H]-WIN55212-2 from human CB2 receptor
Homo sapiens [16] = species: Homo sapiens; experiment: Selectivity ratio of Ki for human CB1 receptor to Ki for human CB2 receptor
Cannabinoid receptor 2 [17] = target: T1, Cannabinoid receptor 2; experiment: Displacement of [18F]-LU13 from human CB2 receptor transfected in CHO cells membrane homogenate incubated for 90 mins by competitive radioligand binding assay; assay type: cell membranes
Cannabinoid receptor 2 [18] = target: T2, Cannabinoid receptor 2 (Rattus norvegicus, UniProt Q9QZN9); experiment: Displacement of [18F]-LU13 from rat spleen CB2 receptor incubated for 90 mins by competitive radioligand binding assay; assay type: tissue-based
T2 sequence (Q9QZN9 whole entry): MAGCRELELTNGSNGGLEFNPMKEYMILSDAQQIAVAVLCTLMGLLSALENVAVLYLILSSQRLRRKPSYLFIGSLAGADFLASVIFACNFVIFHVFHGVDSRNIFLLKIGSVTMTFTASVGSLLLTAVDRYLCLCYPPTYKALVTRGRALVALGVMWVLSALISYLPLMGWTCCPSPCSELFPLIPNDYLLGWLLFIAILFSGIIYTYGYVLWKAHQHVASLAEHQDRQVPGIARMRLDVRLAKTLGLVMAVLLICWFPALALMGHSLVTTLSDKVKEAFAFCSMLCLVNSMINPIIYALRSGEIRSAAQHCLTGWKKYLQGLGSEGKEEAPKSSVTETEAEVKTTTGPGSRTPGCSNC

[19] = tested as the 18F-labelled form

T1 sequence (P34972 whole entry): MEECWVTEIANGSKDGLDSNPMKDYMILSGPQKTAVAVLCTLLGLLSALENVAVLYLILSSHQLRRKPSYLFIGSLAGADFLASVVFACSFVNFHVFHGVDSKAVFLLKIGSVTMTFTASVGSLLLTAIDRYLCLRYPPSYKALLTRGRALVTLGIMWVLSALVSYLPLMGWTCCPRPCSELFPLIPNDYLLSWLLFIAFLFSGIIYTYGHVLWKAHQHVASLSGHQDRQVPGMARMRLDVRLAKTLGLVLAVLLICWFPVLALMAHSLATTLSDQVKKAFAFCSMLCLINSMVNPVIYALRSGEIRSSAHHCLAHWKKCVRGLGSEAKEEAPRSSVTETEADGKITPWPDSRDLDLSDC
Cannabinoid receptor 1, sequence (P21554 whole entry): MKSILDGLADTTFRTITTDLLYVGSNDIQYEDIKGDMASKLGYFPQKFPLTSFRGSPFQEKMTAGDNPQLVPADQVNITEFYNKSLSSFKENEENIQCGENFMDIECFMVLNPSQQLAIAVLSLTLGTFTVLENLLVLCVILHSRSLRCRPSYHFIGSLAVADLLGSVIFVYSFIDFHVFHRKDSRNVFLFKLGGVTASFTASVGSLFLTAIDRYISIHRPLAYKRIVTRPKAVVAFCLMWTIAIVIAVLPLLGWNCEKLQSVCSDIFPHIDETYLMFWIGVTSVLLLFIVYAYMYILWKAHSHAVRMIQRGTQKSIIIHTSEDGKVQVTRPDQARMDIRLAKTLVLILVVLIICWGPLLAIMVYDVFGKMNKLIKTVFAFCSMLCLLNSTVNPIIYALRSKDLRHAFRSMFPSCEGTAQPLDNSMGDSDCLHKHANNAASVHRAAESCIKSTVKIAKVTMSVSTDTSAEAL

Row | SMILES | Ki (Cannabinoid receptor 2 [1]) [µM] | Ki (Cannabinoid receptor 1) [nM] | other results
1 | C[C@H]1CC[C@@H](NC(=O)c2cc3cc(-c4ccco4)cnc3n(CCCF)c2=O)CC1 | > 10 | 28 | 
2 | C[C@H]1CC[C@H](NC(=O)c2cc3cc(-c4ccco4)cnc3n(Cc3ccc(F)cc3)c2=O)CC1 |  | 86 | 
3 | [2H]C([2H])([18F])C([2H])([2H])C([2H])([2H])C([2H])([2H])n1c(=O)c(C(=O)NC23CC4CC(CC(C4)C2)C3)cc2cccnc21 |  |  | Drug uptake [2]: 3.6 SUV.min; Drug uptake [3]: 1.8 SUV.min; Drug uptake [4]: 6.1 min; Drug uptake [5]: 26 min; remaining at 0.5 h [6]: 95%; Drug uptake [7]: 5.4 min; remaining at 0.5 h [8]: 23%; MRT [9]: 23 min; remaining at 0.5 h [10]: 85%; Drug uptake [11]: 1.7 SUV.min; MRT [12]: 23 min
4 | C[C@H]1CC[C@H](NC(=O)c2cc3cccnc3n(CCCF)c2=O)CC1 |  | 4600 | 
5 | COc1cccc2c(=O)c(C(=O)NC34CC5CC(CC(C5)C3)C4)cn(CCOCCC[18F])c12 |  |  | Ki (Cannabinoid receptor 2 [13]): 0.9 nM
6 | C[C@H]1CC[C@H](NC(=O)c2cc3cc(-c4ccco4)cnc3n(Cc3cccc(F)c3)c2=O)CC1 |  | 5000 | 
7 | [2H]C([2H])([18F])C([2H])([2H])C([2H])([2H])OC(=O)C(CC)(CC)NC(=O)c1ccc(N2CC(OC)C2)c(OC[C@H]2C[C@@H]2CO)n1 |  |  | Ki (Cannabinoid receptor 2 [14]): 0.6 nM
8 | O=C(NCc1ccc(F)cc1)c1cc2cccnc2n(CCCCF)c1=O | > 10 | 1100 | 
9 | C[C@H]1CC[C@H](NC(=O)c2cc3cc(-c4ccco4)cnc3n(CCCCF)c2=O)CC1 |  | 49 | 
10 | C[C@H]1CC[C@@H](NC(=O)c2cc3cccnc3n(CCCCF)c2=O)CC1 | > 1 | 6 | Ratio Ki (Homo sapiens [15]): > 167
11 | O=C(NC12CC3CC(CC(C3)C1)C2)c1cc2cccnc2n(CCOCCF)c1=O | > 1 | 3.9 | 
12 | C[C@H]1CC[C@@H](NC(=O)c2cc3cccnc3n(CCOCCF)c2=O)CC1 | > 10 | 13 | Ratio Ki (Homo sapiens [15]): > 714
13 | O=C(NC12CC3CC(CC(C3)C1)C2)c1cc2cccnc2n(Cc2ccc(F)cc2)c1=O | > 1 | 1.5 | 
14 | C[C@H]1CC[C@@H](NC(=O)c2cc3cccnc3n(CCCF)c2=O)CC1 |  | 115 | 
15 | C[C@H]1CC[C@@H](NC(=O)c2cc3cc(-c4ccco4)cnc3n(Cc3ccccc3F)c2=O)CC1 | > 10 | 65 | Ratio Ki (Homo sapiens [15]): > 153
16 | C[C@H]1CC[C@@H](NC(=O)c2cc3cc(-c4ccco4)cnc3n(Cc3ccc(F)cc3)c2=O)CC1 | 0.915 | 5 | Ratio Ki (Homo sapiens [15]): > 183
17 | O=C(Nc1cccnc1)c1cc2cccnc2n(CCCCF)c1=O | > 10 | > 1000 | 

Row | SMILES | Ki (Cannabinoid receptor 2 [1]) [µM] | Ki (Cannabinoid receptor 1) [nM] | other results
18 | Cc1s/c(=N\C(=O)C2C(C)(C)C2(C)C)n(CCCCF)c1C |  |  | Ratio Ki (Homo sapiens [15]; [19]): 1000
19 | O=C(Nc1ccc(F)cc1)c1cc2cccnc2n(CCCCF)c1=O | > 10 | 3900 | 
20 | C[C@H]1CC[C@@H](NC(=O)c2cc3cc(-c4ccco4)cnc3n(Cc3cccc(F)c3)c2=O)CC1 | > 10 | 2.9 | Ratio Ki (Homo sapiens [15]): > 1000
21 | O=C(Nc1ccc(F)nc1)c1cc2cccnc2n(CCCCF)c1=O | > 10 | > 1000 | 
22 | CC1CCC(NC(=O)c2cc3cc(Br)cnc3n(CCCCF)c2=O)CC1 (mixture of isomers) | > 10 | 4.8 | 
23 | C[C@H]1CC[C@H](NC(=O)c2cc3cccnc3n(CCOCCF)c2=O)CC1 |  | 780 | 
24 | CC1CCC(NC(=O)c2cc3cc(Br)cnc3n(Cc3ccc(F)cc3)c2=O)CC1 (mixture of isomers) | > 0.155 | 1.7 | Ratio Ki (Homo sapiens [15]): 91
25 | CCC(CC)(NC(=O)c1ccc(N2CC(OC)C2)c(OC[C@H]2C[C@@H]2CO)n1)C(=O)OCCCF |  |  | Ratio Ki (Homo sapiens [16]; tested as the 18F, 2H-labelled form): > 10000
26 | CCCCOc1c(OC)ccc2cc(C(=O)NC3CCCCC3)c(=O)[nH]c12 |  |  | Ratio Ki (Homo sapiens [16]; tested as the 11C-labelled form): 100
27 | C[C@H]1CC[C@@H](NC(=O)c2cc3cc(-c4ccco4)cnc3n(CCCCF)c2=O)CC1 | > 10 | 3.3 | Ratio Ki (Homo sapiens [15]): > 303
28 | COc1cccc2c(=O)c(C(=O)NC34CC5CC(CC(C5)C3)C4)cn(CCOCCCF)c12 |  |  | Ratio Ki (Homo sapiens [15]; [19]): > 10000
29 | C[C@H]1CC[C@H](NC(=O)c2cc3cc(-c4ccco4)cnc3n(Cc3ccccc3F)c2=O)CC1 |  | > 10000 | 
30 | Cc1s/c(=N\C(=O)C2C(C)(C)C2(C)C)n(CCCC[18F])c1C | 0.0004 |  | 
31 | O=C(NC12CC3CC(CC(C3)C1)C2)c1cc2cccnc2n(CCCCF)c1=O | > 1 | 0.6 | IC50 (Cannabinoid receptor 2 [17]): 1.17 nM; IC50 (Cannabinoid receptor 2 [18]): 0.22 nM; Ratio Ki (Homo sapiens [15]): > 1000
32 | O=C(Nc1ccccc1)c1cc2cccnc2n(CCCCF)c1=O | > 10 | 2200 | 
33 | O=C(Nc1ccncc1)c1cc2cccnc2n(CCCCF)c1=O | > 10 | > 1000 | 
34 | C[C@H]1CC[C@H](NC(=O)c2cc3cc(-c4ccco4)cnc3n(CCCF)c2=O)CC1 |  | 6800 | 
